Reference: PMC6161432 (The Journal of Venomous Animals and Toxins Including …, 2018)
pEC50: −log10 of the molar value. Entries after “also recorded” stand apart in the source; their conditions may differ. Where two headings read alike, the source gives them in different places.

Key:
[1] = system: Leishmania (L.) infantum promastigotes; assay: Activity against L. (L.) infantum promastigotes (MTT viability assay); format: cell-based; conditions: 48 h at 24 °C, NA = not active, maximum tested concentration 100 μM; for pEC50: read-out: EC50 Leishmania (L.) infantum Promastigote (95% CI)
Protocol: (§1) Isolated promastigotes of Leishmania (L.) infantum (MHOM/BR/1972/LD) were maintained in M-199 medium supplemented with 10% calf serum and 0.25% hemin at 24 °C. The L. (L.) infantum (MHOM/BR/1972/LD) was maintained in hamsters (Mesocricetus auratus). Amastigotes were harvested from spleens of infected hamsters. The animals were infected with 10^8 amastigotes (300 μL) by the i.p. route. At 60 days post-infection, the animals were euthanized, and the spleens analyzed by light microscopy using Giemsa-stained smears. The parasite load was expressed in Leishman-Donovan units (i.e., the number of amastigotes per 1000 nucleated cells x organ weight [in g] × 2 × 10^5). Briefly, the spleen was macerated in a tissue grinder tube containing 5 mL of phosphate-buffered saline (PBS), whereas the amastigotes were separated by differential centrifugation to obtain a suspension of parasites. The first centrifugation of the spleen suspension (0.8 rpm) was employed to separate the red and white cells (pellet) from the amastigote forms (supernatant). Next, a second centrifugation of the supernatant from the previous step (2.8 rpm) was performed to concentrate the amastigote forms.
Promastigotes were counted in a Neubauer hemocytometer and seeded at 1 × 10^6/well to obtain a final volume of 150 μL. Controls with DMSO and without drugs were also performed. Miltefosine was dissolved in H2O at 30 mg/mL and used as a standard drug. […] Each point was tested in duplicate. The plate was incubated for 48 h at 24 °C and the viability of promastigotes was verified by morphology in light microscopy and by the MTT assay. Briefly, MTT ([…]) was dissolved in PBS, sterilized through 0.22 μm membranes and added (20 μL/well) for 4 h at 24 °C. Promastigotes were incubated without compounds and used as viability control. Formazan extraction was performed using 10% SDS for 18 h (80 μL/well) at 24 °C and the optical density (OD) was determined in a Multiskan MS (UNISCIENCE) at 550 nm. One hundred percent (100%) viability was expressed based on the OD of control promastigotes, after normalization.
(§2) The obtained data represent the mean and standard deviation of duplicate samples from two independent assays. EC50 values were calculated using sigmoid dose–response curves in the software GraphPad Prism 5.0; the 95% confidence intervals are included in parentheses. The Mann–Whitney test was used for the significance test (P value).

[2] = system: Leishmania (L.) infantum intracellular amastigotes; assay: Activity against L. (L.) infantum intracellular amastigotes in mouse peritoneal macrophages (Giemsa counting, parasitic index); format: cell-based; conditions: for pEC50: read-out: EC50 Leishmania (L.) infantum Amastigote (95% CI)
Protocol: as §1
Peritoneal macrophages were collected from the peritoneal cavity of female BALB/c mice by washing with RPMI-1640 without phenol red, supplemented with 10% fetal bovine serum.
Amastigotes were isolated from spleens of previously infected hamsters, and separated by differential centrifugation. The tissue sample was macerated to break the cell membranes to release all cell contents including the amastigotes. Then the lysate was subjected to two repeated centrifugations (0.8 rpm followed 2.8 rpm) where density separation causes a sediment. The supernatant and the pellet were recovered via the first and second centrifugation, respectively. […] Non-internalized parasites were removed by washing once with medium, whereas tested compounds were incubated with infected macrophages for 96 h. Miltefosine was also used as a standard control drug. Subsequently, the cells were fixed with MeOH, stained with Giemsa and observed through a light microscope. The parasite burden was determined by the ratio of infected macrophages versus the mean number of amastigotes per macrophage out of 500 macrophages, i.e., the parasitic index (PI). […] Each point was tested in duplicate.
as §2

[3] = Cytotoxicity against mammalian cells (MTT assay); conditions: mouse
NCTC clone L-929 cells = assay: Cytotoxicity against mammalian cells (MTT assay); conditions: CC50 against mammalian cells / EC50 against amastigotes
[4] = intracellular amastigotes in BALB/c peritoneal macrophages, 96 h incubation, NA = not active, maximum tested concentration 100 μM
[5] = Peritoneal macrophage, 96 h, intracellular amastigotes in BALB/c peritoneal macrophages, 96 h incubation, NA = not active, maximum tested concentration 100 μM

pEC50 [2, 5]	pEC50 [2, 4]	Structure (SMILES)	EC50 Leishmania (L.) infantum Promastigote (95% CI) [1]	EC50 Leishmania (L.) infantum Amastigote (95% CI) [2, 4]	CC50 at 48 h ([3]; NCTC clone L-929 cells) [µM]	EC50 Leishmania (L.) infantum Amastigote (95% CI) ([2]; 96 h, 100 µM)	CC50 at 48 h [3] [µM]	pEC50 ([1]; 48 h)	SI Amastigote (selectivity index) (NCTC clone L-929 cells)	pEC50 [1]
		C=CCc1ccc(O)c(OC)c1 [eugenol, reference compound]	no activity	did not display activity; also recorded: no activity	> 200					
		C=CCc1ccc(Oc2cc([C@H](O)C=C)cc(OC)c2O)c(OC)c1 [Compound 3, 1-[(7R)-hydroxy-8-propenyl]-3-[3′-methoxy-1′-(8′-propenyl)-phenoxy]-4-hydroxy-5-methoxybenzene]	no activity	inactive	> 200					
		C=CCc1cc(OC)c(O)c(-c2cc(CC=C)cc(OC)c2O)c1 [Compound 5]	no activity	inactive	58.1					
		C=CCc1ccc(OC)c(OC)c1 [methyleugenol]		did not display activity		no activity	> 200			
4.17		C=CCc1ccc(Oc2cc([C@H](O)C=C)cc(OC)c2OC)c(OC)c1 [Compound 4, 1-[(7R)-hydroxy-8-propenyl]-3-[3′-methoxy-1′-(8′-propenyl)-phenoxy]-4,5-dimethoxybenzene]			> 200			4.18	> 2.9	
4.79	4.77	CCCCCCCCCCCCCCCCOP(=O)([O-])OCC[N+](C)(C)C [miltefosine, reference compound]			122			4.77	7.2	4.79

Structure (SMILES)	pEC50 [2, 5]	pEC50 [2, 4]	EC50 Leishmania (L.) infantum Promastigote (95% CI) [1]	EC50 Leishmania (L.) infantum Amastigote (95% CI) [2, 4]	CC50 at 48 h ([3]; NCTC clone L-929 cells) [µM]	EC50 Leishmania (L.) infantum Amastigote (95% CI) ([2]; 96 h, 100 µM)	CC50 at 48 h [3] [µM]	pEC50 ([1]; 48 h)	SI Amastigote (selectivity index) (NCTC clone L-929 cells)	pEC50 [1]
C=CCc1cc(OC)c(OC)c(-c2cc(CC=C)cc(OC)c2OC)c1 [Compound 6, dehydrodieugenol dimethyl ether]	4.86				> 200			4.05	> 14.6	
